The source of these data is patent publication US20240228572A1 (i2o Therapeutics, Inc., priority 2020, published 2024).

Usually EC50 stands for the concentration needed to bring the measured effect to its halfway point. A low value points to an effect from little substance.

*1 amine or outer side, *2 acyl side, *3 side chain or, on linkers, in order; H or OH if unused. Where a SMILES comes first, the peptide text is derived from it. Bridges are numbered along the chain shown (N, C = ends). Side-chain parts run from the residue outwards. [ ]: non-standard residue; d: D form. The star is where a group is joined. C20 diacid = O=C(O)CCCCCCCCCCCCCCCCCCC(=O)*; γGlu = O=C(O)[C@H](CCC(=O)[*:2])N[*:1]; AEEA = NCCOCCOCC(=O)O; Aib = CC(C)(N)C(=O)O

Assay [1] has as its target T1, human Glucagon receptor (GCGR) (Homo sapiens, UniProt P47871).
T1 construct: A cDNA fragment encoding the full-length open reading frame of the human GCGR; expressed in transfected cells; host or cells: CHO-K1, pcDNA3.1+, Lipofectamine 2000
Description: cAMP accumulation assay, CHO-K1 cells expressing human GCGR. The conditions noted are these: mean pEC50, Table 10. In kind it is cell-based. The text has this: In the presence of the non-specific cAMP/cGMP phosphodiesterase inhibitor, 3-isobutyl-1-methylxanthine (IBMX), accumulating cAMP can be measured in vitro using common detection methods. Thus, it is possible to estimate an in vitro potency (pEC50) for peptides activating each of these receptors using fit dose-response curves for cAMP accumulation.
A cDNA fragment encoding the full-length open reading frame of the cynomolgus monkey GLP-1R (Genebank accession #XM_028847603 was cloned into pcDNA3.1+ for expression in CHO-K1 cells. A cDNA fragment encoding the full-length open reading frame of the human GCGR (Genebank accession #NM_000160 was cloned into pcDNA3.1+ for expression in CHO-K1 cells. A cDNA fragment encoding the full-length open reading frame of the rat GCGR (Genebank accession #NM_12091 was cloned into pcDNA3.1+ for expression in CHO-K1 cells. A cDNA fragment encoding the full-length open reading frame of the cynomolgus monkey GCGR (Genebank accession #XM_005585255 was cloned into pcDNA3.1+ for expression in CHO-K1 cells.
On day 1, CHO-K1 cells were plated at 1.5 million cells per T75 flask in 90% F12-K media supplemented with 10% FBS. On day 3 cells were transfected with 40 mcg of each expression plasmid using Lipofectamine 2000 transfection reagent. On day 5, cells were dispensed at 1000 cells per well in white 384-well OptiPlates in 5 mcL of assay buffer consisting of 1×HBSS, 5 mM HEPES, 0.5 mM IBMX, and 0.1% casein.
Peptides were serially diluted 4-fold in assay buffer to final concentrations ranging from 1×10^−9 M to 9.5×10^−16 M. Two assay controls consisting of 50 mcM forskolin (cAMP system maximum) or assay buffer only (cAMP system minimum) were also prepared. Five microliters of each peptide-concentration, or assay control, was added to triplicate wells and incubated for thirty minutes at room temperature. During this incubation step a 4× europium labelled cAMP tracer solution and a 4× Ulight®-anti-cAMP solution (consisting of an anti-cAMP monoclonal antibody labelled with Ulight™ dye) was prepared according to the manufacturer's protocol (PerkinElmer LANCE Ultra cAMP kit). Following this incubation, 5 mcL europium labelled cAMP and 5 mcL Ulight anti-cAMP antibody was added to each well. The plate was covered to prevent evaporation and incubated for 60 minutes at room temperature in the dark. Plates were read on an Envision fluorescent plate reader (PerkinElmer).
Test values were first normalized to the system maximum and system minimum averaged values in Excel using the formula: (test value−system min average)/(system max average -system min average)*100. Normalized test values represent a baseline corrected percentage of the system maximum cAMP response induced by forskolin. Data from up to 3 replicate tests were analyzed for each peptide. Potency values were estimated using GraphPad Prism software (v7.04) by fitting data to a 4-parameter logistic curve model: Y=Bottom+(Top−Bottom)/(1+10^((LogEC50−X))). The Hill slope was constrained to 1.0. EC50 values were converted to pEC50 values using the formula: pEC50=−Log (EC50).
On the technique in general: Changes in cAMP serve as a functional read-out for many G protein-coupled receptors.

For assay [2], the target named is T2, human GLP-1 receptor (GLP-1R) (Homo sapiens, UniProt P43220).
T2 construct: expressed in transfected cells
T2 sequence (P43220 24-463): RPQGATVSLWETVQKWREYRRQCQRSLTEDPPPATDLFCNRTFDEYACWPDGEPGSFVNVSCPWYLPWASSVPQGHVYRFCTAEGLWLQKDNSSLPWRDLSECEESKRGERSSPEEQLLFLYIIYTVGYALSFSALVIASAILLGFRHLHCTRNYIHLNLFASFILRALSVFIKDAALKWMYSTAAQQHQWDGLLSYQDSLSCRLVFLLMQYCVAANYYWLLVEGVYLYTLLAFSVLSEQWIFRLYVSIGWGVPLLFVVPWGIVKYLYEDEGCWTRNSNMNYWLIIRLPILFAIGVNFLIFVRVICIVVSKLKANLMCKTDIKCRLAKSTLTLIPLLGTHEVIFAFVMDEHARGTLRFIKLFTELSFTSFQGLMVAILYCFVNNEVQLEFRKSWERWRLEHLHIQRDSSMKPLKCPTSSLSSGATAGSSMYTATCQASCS
Description: cAMP accumulation assay, CHO-K1 cells stably expressing human GLP-1R. Type of assay: cell-based. The conditions noted are these: cAMP accumulation, mean pEC50, Table 10.

T1 sequence (P47871 26-477): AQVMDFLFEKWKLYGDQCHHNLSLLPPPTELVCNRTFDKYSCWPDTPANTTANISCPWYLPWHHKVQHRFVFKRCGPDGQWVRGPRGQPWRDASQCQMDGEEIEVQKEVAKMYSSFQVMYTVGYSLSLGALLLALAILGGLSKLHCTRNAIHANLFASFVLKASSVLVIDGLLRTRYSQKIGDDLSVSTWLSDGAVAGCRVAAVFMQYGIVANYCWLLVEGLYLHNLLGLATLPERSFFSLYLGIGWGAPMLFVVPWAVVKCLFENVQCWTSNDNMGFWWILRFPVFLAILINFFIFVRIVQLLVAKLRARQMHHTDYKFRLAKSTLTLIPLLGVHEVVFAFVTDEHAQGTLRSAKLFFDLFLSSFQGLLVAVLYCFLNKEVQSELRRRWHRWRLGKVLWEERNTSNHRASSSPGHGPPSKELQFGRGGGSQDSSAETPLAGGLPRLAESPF

With `CC(C)C[C@H](NC(=O)[C@H](Cc1ccc(O)cc1)NC(=O)[C@H](CCCCN)NC(=O)[C@H](CO)NC(=O)[C@H](Cc1ccc(O)cc1)NC(=O)[C@H](CC(=O)O)NC(=O)[C@H](CO)NC(=O)[C@@H](NC(=O)[C@H](Cc1ccccc1)NC(=O)[C@@H](NC(=O)CNC(=O)[C@H](Cc1c[nH]cn1)NC(=O)[C@H](CO)NC(=O)[C@@H](N)Cc1ccc(O)cc1)[C@@H](C)O)[C@@H](C)O)C(=O)N[C@@H](CC(=O)O)C(=O)NC(C)(C)C(=O)N[C@@H](CCCCN)C(=O)N[C@@H](Cc1ccc(O)cc1)C(=O)N[C@@H](C)C(=O)N[C@@H](CCC(N)=O)C(=O)N[C@@H](CCCCNC(=O)CC[C@H](NC(=O)CC[C@H](NC(=O)CCCCCCCCCCCCCCCCCCC(=O)O)C(=O)O)C(=O)O)C(=O)N[C@@H](Cc1ccccc1)C(=O)N[C@H](C(=O)NC(C)(C)C(=O)N[C@@H](Cc1c[nH]c2ccccc12)C(=O)N[C@@H](CC(C)C)C(=O)N[C@@H](CCC(=O)O)C(=O)N[C@@H](CC(=O)O)C(=O)N[C@@H](CCC(=O)O)C(=O)N1CCC[C@H]1C(=O)N[C@@H](CO)C(=O)N[C@@H](CO)C(=O)NCC(=O)N[C@@H](C)C(=O)N1CCC[C@H]1C(=O)N1CCC[C@H]1C(=O)N1CCC[C@H]1C(=O)N[C@@H](CO)C(=O)O)C(C)C` [Compound A14] (H-YSHGTFTSDYSKYLD[Aib]KYAQK([γGlu-γGlu-C20 diacid])FV[Aib]WLEDEPSSGAPPPS-OH; N-terminus assumed), the values for the EC50 in assay [1] and in assay [2] were 6.31 pM and more than 1000 pM, respectively.

Turning to `CC(C)C[C@H](NC(=O)[C@H](Cc1ccc(O)cc1)NC(=O)[C@H](CCCCN)NC(=O)[C@H](CO)NC(=O)[C@H](Cc1ccc(O)cc1)NC(=O)[C@H](CC(=O)O)NC(=O)[C@H](CO)NC(=O)[C@@H](NC(=O)[C@H](Cc1ccccc1)NC(=O)[C@@H](NC(=O)CNC(=O)[C@H](Cc1c[nH]cn1)NC(=O)[C@H](CO)NC(=O)[C@@H](N)Cc1ccc(O)cc1)[C@@H](C)O)[C@@H](C)O)C(=O)N[C@@H](CC(=O)O)C(=O)N[C@@H](CCCCNC(=O)CC[C@H](NC(=O)CC[C@H](NC(=O)COCCOCCNC(=O)CCCCCCCCCCCCCCCCCCC(=O)O)C(=O)O)C(=O)O)C(=O)N[C@@H](CCCCN)C(=O)N[C@@H](Cc1ccc(O)cc1)C(=O)N[C@@H](C)C(=O)N[C@@H](CCC(N)=O)C(=O)N[C@@H](CCC(=O)O)C(=O)N[C@@H](Cc1ccccc1)C(=O)N[C@H](C(=O)NC(C)(C)C(=O)N[C@@H](Cc1c[nH]c2ccccc12)C(=O)N[C@@H](CC(C)C)C(=O)N[C@@H](CCC(=O)O)C(=O)N(C)[C@@H](CCC(=O)O)C(=O)N[C@@H](CCC(=O)O)C(=O)N1CCC[C@H]1C(=O)N[C@@H](CO)C(=O)N[C@@H](CO)C(=O)NCC(=O)N[C@@H](C)C(=O)N1CCC[C@H]1C(=O)N1CCC[C@H]1C(=O)N1CCC[C@H]1C(=O)N[C@@H](CO)C(=O)O)C(C)C` [Compound A18], the EC50 in assay [1] is 39.8 pM; in assay [2] it was more than 1000 pM.

Take `CC(C)C[C@H](NC(=O)[C@H](Cc1ccc(O)cc1)NC(=O)[C@H](CCCCN)NC(=O)[C@H](CO)NC(=O)[C@H](Cc1ccc(O)cc1)NC(=O)[C@H](CC(=O)O)NC(=O)[C@H](CO)NC(=O)[C@@H](NC(=O)[C@H](Cc1ccccc1)NC(=O)[C@@H](NC(=O)CNC(=O)[C@H](Cc1c[nH]cn1)NC(=O)[C@H](CO)NC(=O)[C@@H](N)Cc1ccc(O)cc1)[C@@H](C)O)[C@@H](C)O)C(=O)N[C@@H](CC(=O)O)C(=O)N[C@@H](CCCCNC(=O)CC[C@H](NC(=O)CC[C@H](NC(=O)COCCOCCNC(=O)CCCCCCCCCCCCCCCCCCC(=O)O)C(=O)O)C(=O)O)C(=O)N[C@@H](CCCCN)C(=O)N[C@@H](Cc1ccc(O)cc1)C(=O)N[C@@H](C)C(=O)N[C@@H](CCCCN)C(=O)N[C@@H](CCC(=O)O)C(=O)N[C@@H](Cc1ccccc1)C(=O)N[C@H](C(=O)NC(C)(C)C(=O)N[C@@H](Cc1c[nH]c2ccccc12)C(=O)N[C@@H](CC(C)C)C(=O)N[C@@H](CCC(=O)O)C(=O)N[C@@H](CO)C(=O)N[C@@H](CCC(=O)O)C(=O)N1CCC[C@H]1C(=O)N[C@@H](CO)C(=O)N[C@@H](CO)C(=O)NCC(=O)N[C@@H](C)C(=O)N1CCC[C@H]1C(=O)N1CCC[C@H]1C(=O)N1CCC[C@H]1C(=O)N[C@@H](CO)C(=O)O)C(C)C` [Compound A22] (H-YSHGTFTSDYSKYLDK([γGlu-γGlu-AEEA-C20 diacid])KYAKEFV[Aib]WLESEPSSGAPPPS-OH; N-terminus assumed): the EC50 was 2 pM in assay [1] and more than 1000 pM in assay [2].

As to `CC(C)C[C@H](NC(=O)[C@H](Cc1ccc(O)cc1)NC(=O)[C@H](CCCCN)NC(=O)[C@H](CO)NC(=O)[C@H](Cc1ccc(O)cc1)NC(=O)[C@H](CC(=O)O)NC(=O)[C@H](CO)NC(=O)[C@@H](NC(=O)[C@H](Cc1ccccc1)NC(=O)[C@@H](NC(=O)CNC(=O)[C@H](Cc1c[nH]cn1)NC(=O)[C@H](CO)NC(=O)[C@@H](N)Cc1ccc(O)cc1)[C@@H](C)O)[C@@H](C)O)C(=O)N[C@@H](CC(=O)O)C(=O)N[C@@H](CCCCNC(=O)CC[C@H](NC(=O)CC[C@H](NC(=O)COCCOCCNC(=O)CCCCCCCCCCCCCCCCCCC(=O)O)C(=O)O)C(=O)O)C(=O)N[C@@H](CCCCN)C(=O)N[C@@H](Cc1ccc(O)cc1)C(=O)N[C@@H](C)C(=O)N[C@@H](CCC(=O)O)C(=O)N[C@@H](CCC(=O)O)C(=O)N[C@@H](Cc1ccccc1)C(=O)N[C@H](C(=O)NC(C)(C)C(=O)N[C@@H](Cc1c[nH]c2ccccc12)C(=O)N[C@@H](CC(C)C)C(=O)N[C@@H](CCC(=O)O)C(=O)N[C@@H](CO)C(=O)N[C@@H](CCC(=O)O)C(=O)N1CCC[C@H]1C(=O)N[C@@H](CO)C(=O)N[C@@H](CO)C(=O)NCC(=O)N[C@@H](C)C(=O)N1CCC[C@H]1C(=O)N1CCC[C@H]1C(=O)N1CCC[C@H]1C(=O)N[C@@H](CO)C(=O)O)C(C)C` [Compound A23] (H-YSHGTFTSDYSKYLDK([γGlu-γGlu-AEEA-C20 diacid])KYAEEFV[Aib]WLESEPSSGAPPPS-OH), the EC50 in assay [1] is 3.16 pM; in assay [2], more than 1000 pM.

Regarding `CC(C)C[C@H](NC(=O)[C@H](Cc1ccc(O)cc1)NC(=O)[C@H](CCCCN)NC(=O)[C@H](CO)NC(=O)[C@H](Cc1ccc(O)cc1)NC(=O)[C@H](CC(=O)O)NC(=O)[C@H](CO)NC(=O)[C@@H](NC(=O)[C@H](Cc1ccccc1)NC(=O)[C@@H](NC(=O)CNC(=O)[C@H](Cc1c[nH]cn1)NC(=O)[C@H](CO)NC(=O)[C@@H](N)Cc1ccc(O)cc1)[C@@H](C)O)[C@@H](C)O)C(=O)N[C@@H](CC(=O)O)C(=O)N[C@@H](CCCCNC(=O)CC[C@H](NC(=O)CC[C@H](NC(=O)COCCOCCNC(=O)CCCCCCCCCCCCCCCCCCC(=O)O)C(=O)O)C(=O)O)C(=O)N[C@@H](CCCCN)C(=O)N[C@@H](Cc1ccc(O)cc1)C(=O)N[C@@H](C)C(=O)N[C@H]1CCC(=O)NCCCC[C@@H](C(=O)N[C@@H](Cc2c[nH]c3ccccc23)C(=O)N[C@@H](CC(C)C)C(=O)N[C@@H](CCC(=O)O)C(=O)N[C@@H](CCC(=O)O)C(=O)N[C@@H](CCC(=O)O)C(=O)N2CCC[C@H]2C(=O)N[C@@H](CO)C(=O)N[C@@H](CO)C(=O)NCC(=O)N[C@@H](C)C(=O)N2CCC[C@H]2C(=O)N2CCC[C@H]2C(=O)N2CCC[C@H]2C(=O)N[C@@H](CO)C(=O)O)NC(=O)[C@H](C(C)C)NC(=O)[C@H](Cc2ccccc2)NC(=O)[C@H](CCCCN)NC1=O` [Compound A25] (H-YSHGTFTSDYSKYLDK([γGlu-γGlu-AEEA-C20 diacid])KYAEKFVKWLEEEPSSGAPPPS-OH; lactam 20-24), the EC50 is 1.26 pM in assay [1] and more than 1000 pM in assay [2].
